Data reported in PMC4937633 (Journal of Drug Assessment, 2014).
Where “and” joins values, the source holds several entries; their conditions need not be identical. Equal entries are not always repeated. Where two headings read alike, the source gives them in different places.

Experiments:
[1] = biological target: T1, mouse mdr1a (Mus musculus, UniProt P21447); test: P-glycoprotein substrate test, mouse mdr1a transfected LLCPK cells (L-Mdr1a); type: in vitro ADME; details: in vitro
T1 construct: host or cells: LLCPK (porcine kidney epithelial cells), L-Mdr1a
T1 sequence (P21447 whole entry): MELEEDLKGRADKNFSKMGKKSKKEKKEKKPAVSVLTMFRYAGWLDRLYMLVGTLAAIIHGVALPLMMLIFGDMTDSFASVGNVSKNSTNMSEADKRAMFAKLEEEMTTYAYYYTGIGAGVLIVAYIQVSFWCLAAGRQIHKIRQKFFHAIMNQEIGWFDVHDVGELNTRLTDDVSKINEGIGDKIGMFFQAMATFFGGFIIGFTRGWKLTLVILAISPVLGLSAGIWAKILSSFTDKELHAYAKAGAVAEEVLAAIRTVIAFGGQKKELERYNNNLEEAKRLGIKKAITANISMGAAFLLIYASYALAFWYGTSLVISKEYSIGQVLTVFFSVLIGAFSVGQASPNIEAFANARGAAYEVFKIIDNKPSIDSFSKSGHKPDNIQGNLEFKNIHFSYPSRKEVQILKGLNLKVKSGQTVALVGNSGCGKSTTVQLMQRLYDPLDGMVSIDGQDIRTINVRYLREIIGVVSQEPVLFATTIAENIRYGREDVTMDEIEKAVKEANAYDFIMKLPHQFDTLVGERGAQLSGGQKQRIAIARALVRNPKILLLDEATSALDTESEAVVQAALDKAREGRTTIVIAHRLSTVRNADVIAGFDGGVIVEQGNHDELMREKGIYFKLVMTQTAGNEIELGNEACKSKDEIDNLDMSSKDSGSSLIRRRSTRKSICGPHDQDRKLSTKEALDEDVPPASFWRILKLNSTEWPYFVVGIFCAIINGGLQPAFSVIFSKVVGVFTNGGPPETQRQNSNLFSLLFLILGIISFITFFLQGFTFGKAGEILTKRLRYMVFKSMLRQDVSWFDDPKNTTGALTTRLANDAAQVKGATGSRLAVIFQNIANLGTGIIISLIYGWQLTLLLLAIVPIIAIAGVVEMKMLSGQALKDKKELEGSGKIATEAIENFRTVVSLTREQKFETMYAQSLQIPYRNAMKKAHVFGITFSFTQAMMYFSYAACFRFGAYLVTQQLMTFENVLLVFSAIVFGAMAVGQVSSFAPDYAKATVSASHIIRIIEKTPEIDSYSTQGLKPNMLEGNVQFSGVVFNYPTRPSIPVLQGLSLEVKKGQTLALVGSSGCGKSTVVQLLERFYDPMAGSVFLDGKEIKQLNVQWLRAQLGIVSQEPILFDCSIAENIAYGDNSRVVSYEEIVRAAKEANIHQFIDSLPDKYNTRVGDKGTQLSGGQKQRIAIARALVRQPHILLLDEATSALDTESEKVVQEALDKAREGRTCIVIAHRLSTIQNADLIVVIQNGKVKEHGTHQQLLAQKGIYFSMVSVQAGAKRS
Excerpt: (§1) Wild type and transfected MDCKII (ATCC #CCL34, cocker spaniel kidney epithelial cell line) and the LLCPK (ATCC #CL-101, porcine kidney epithelial cell line) cell lines were obtained from Dr A. Schinkel (The Netherlands Cancer Institute, Amsterdam, The Netherlands) and used under license agreement. […] The non-transfected wild-type cell lines MDCKII or LLCPK were used as controls. […] More assay details were recently published.

[2] = system: Type 2 diabetes animal models; set-up: method as in PMID 17073841, PMID 17981667; details: dose-dependent; cited from earlier work
[3] = Clinical safety and tolerability assessments; type: in vivo, human
Excerpt: Safety assessments during the treatment period included all adverse events, clinical laboratory safety tests (days 3, 9, and 14), urine chemistry (days 1, 10, and 15), 24-h ECGs (days 1, 10, and 15), and Lead-2 telemetry (days 1, 10, and 15). Subjects were resident in the unit on four occasions (day – 1 to day 3, day 6 to day 8 [morning], day 9 [evening] to day 12, and day 14 to day 17). Ambulatory visits were also required on day 8 (evening) and day 9 (morning) for pharmacokinetic sampling.
All adverse events (AEs) occurring during the clinical study were recorded and their intensity was assessed by investigators as mild, moderate, or severe. AEs occurring before first dosing were reported as baseline signs and symptoms. […] Investigators also assessed each AE’s relationship to treatment as unrelated, remote, possible, or probable. Factors used to determine the relationship to treatment included the temporal association of the AE with administration of study drug, the known pattern of response to the suspected drug, and re-appearance of the AE on re-challenge with the drug.
Vital signs, systolic and diastolic blood pressure, heart rate, and oral temperature were assessed after the subject had been in a supine position for at least 5 min. Vital signs were recorded at the following time-points: Screening visit, treatment period (days 1, 10, and 15 pre-dose and at 2, 6, and 12 h post-dose, and pre-dose only on days 3, 7, and 11–14), and at the follow-up visit. In addition, 12 lead-ECGs were recorded at screening visit day – 1, on days 1, 10, and 15 (pre-dose and at 2, 6, and 12 h post-dose) and at the follow-up visit. Heart rate, QT, QTcB, PR, and QRS were captured directly from the ECG machine. QTcF and RR were derived. T-wave morphology, the occurrence of U-waves, and any other observed abnormalities were additionally recorded. […] The CRF captured whether the results were normal or abnormal.

[4] = Clinical pharmacokinetics of carmegliptin (plasma and urine) alone or with verapamil; type: in vivo, human; details: for AUC(0-inf) / Cmax / half-life / AUC(0-t) / Vd/F / Tmax: plasma; for Vd/F: read-out: Vz/F; for Tmax: median (range)
Experimental: All urine produced by subjects during each sampling interval was collected in pre-weighed polyethylene containers. The urine was refrigerated (2–8°C) between collections and, at the end of each collection interval, an aliquot of ∼10 mL was transferred to polyethylene tubes.
Plasma and urine samples were analyzed for carmegliptin by high-performance liquid chromatography combined with tandem mass spectrometric detection at F. Hoffmann-La Roche Ltd, Basel, Switzerland. The lower limit of quantification was 1 ng/mL for plasma and 20 ng/mL for urine.

[5] = system: primary human hepatocytes; test: Uptake by primary human hepatocytes; type: in vitro ADME; details: data not shown
[6] = biological target: T2, P-glycoprotein (Pgp) (Homo sapiens, UniProt P08183); test: Pgp inhibition potential with digoxin as model substrate (M-MDR1 cells); type: in vitro ADME; details: in vitro
T2 construct: host or cells: transfected MDCKII or LLCPK cells
T2 sequence (P08183 whole entry): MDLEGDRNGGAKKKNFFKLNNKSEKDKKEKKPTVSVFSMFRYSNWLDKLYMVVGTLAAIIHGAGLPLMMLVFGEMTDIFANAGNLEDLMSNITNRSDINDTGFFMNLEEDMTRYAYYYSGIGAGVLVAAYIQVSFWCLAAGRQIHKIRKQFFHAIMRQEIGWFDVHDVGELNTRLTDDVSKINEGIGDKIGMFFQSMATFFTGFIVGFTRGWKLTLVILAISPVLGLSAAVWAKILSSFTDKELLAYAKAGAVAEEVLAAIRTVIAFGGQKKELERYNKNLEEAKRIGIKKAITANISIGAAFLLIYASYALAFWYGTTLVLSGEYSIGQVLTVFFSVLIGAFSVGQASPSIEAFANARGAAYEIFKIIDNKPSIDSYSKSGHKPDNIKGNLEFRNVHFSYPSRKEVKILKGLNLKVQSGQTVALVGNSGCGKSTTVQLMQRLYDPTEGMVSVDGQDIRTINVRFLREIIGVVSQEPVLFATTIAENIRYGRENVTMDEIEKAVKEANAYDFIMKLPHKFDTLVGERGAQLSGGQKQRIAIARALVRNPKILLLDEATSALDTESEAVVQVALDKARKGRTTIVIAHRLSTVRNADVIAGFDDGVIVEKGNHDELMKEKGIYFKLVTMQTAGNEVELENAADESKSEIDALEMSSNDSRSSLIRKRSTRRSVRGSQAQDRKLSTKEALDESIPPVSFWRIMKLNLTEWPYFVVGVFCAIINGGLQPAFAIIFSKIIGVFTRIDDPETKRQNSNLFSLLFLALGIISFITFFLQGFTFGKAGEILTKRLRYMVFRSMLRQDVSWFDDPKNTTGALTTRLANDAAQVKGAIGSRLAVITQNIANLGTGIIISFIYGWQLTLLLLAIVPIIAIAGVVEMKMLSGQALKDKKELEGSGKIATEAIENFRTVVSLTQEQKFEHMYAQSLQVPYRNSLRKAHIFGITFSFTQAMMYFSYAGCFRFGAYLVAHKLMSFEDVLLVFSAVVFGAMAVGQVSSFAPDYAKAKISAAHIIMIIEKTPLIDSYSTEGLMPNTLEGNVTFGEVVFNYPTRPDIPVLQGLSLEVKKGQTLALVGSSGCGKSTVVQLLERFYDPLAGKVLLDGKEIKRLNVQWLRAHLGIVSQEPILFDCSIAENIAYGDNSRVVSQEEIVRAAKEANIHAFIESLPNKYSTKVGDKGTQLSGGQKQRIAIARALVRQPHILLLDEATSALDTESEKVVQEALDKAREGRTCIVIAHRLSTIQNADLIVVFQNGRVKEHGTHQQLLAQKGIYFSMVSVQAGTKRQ
Excerpt: The non-transfected wild-type cell lines MDCKII or LLCPK were used as controls. […] More assay details were recently published.

[7] = In vitro cell permeability; type: in vitro ADME
Excerpt: as §1

[8] = biological target: T3, human MDR1 (Homo sapiens, UniProt P08183); test: P-glycoprotein substrate test, human MDR1 transfected MDCKII cells (M-MDR1); type: in vitro ADME; details: in vitro; M-MDR1 and L-MDR1 cells
T3 construct: host or cells: MDCKII (canine kidney epithelial cells), M-MDR1
T3 sequence (P08183 whole entry): as above
Excerpt: as §1

[9] = system: CHO cells; test: Uptake in CHO cells; type: in vitro ADME; details: data not shown
[10] = system: primary rat hepatocytes; test: Uptake by primary rat hepatocytes; type: in vitro ADME; details: data not shown
[11] = Clinical pharmacokinetics of verapamil and norverapamil alone or with carmegliptin; details: male, human, plasma, oral, 80 mg
[12] = system: Pgp; details: in vitro; cited from earlier work
[13] = acute verapamil (day 10) vs day 1
[14] = carmegliptin 150 mg + chronic verapamil 80 mg t.i.d., day 15, geometric mean (CV%)
[15] = chronic verapamil (day 15) vs day 1
[16] = male, human, oral, 150 mg, carmegliptin 150 mg single dose alone, day 1, geometric mean (CV%)
[17] = male, human, oral, carmegliptin 150 mg + acute verapamil 80 mg t.i.d., day 10, geometric mean (CV%)
[18] = male, human, oral, carmegliptin 150 mg + chronic verapamil 80 mg t.i.d., day 15, geometric mean (CV%)

COc1cc2c(cc1OC)[C@@H]1C[C@H](N)[C@@H](N3C[C@@H](CF)CC3=O)CN1CC2 [Carmegliptin]
substrate of rodent mdr1a [1]: good substrate | glucose tolerance [2]: improved glucose tolerance | subjects with prolonged PQ(PR) intervals (>200 ms) ([3]; after carmegliptin alone (day 1)): one | tolerability ([3]; combination of carmegliptin and verapamil): generally well tolerated | changes in vital signs, ECGs, or laboratory test variables attributed to treatment ([3]; healthy male volunteers): No changes | tolerability ([3]; healthy male volunteers, carmegliptin 150 mg): generally well tolerated | AUCinf higher than carmegliptin alone [4, 13]: 19% | Cmax higher than carmegliptin alone [4, 13]: 48% | maximum plasma levels attained earlier than carmegliptin alone [4, 13]: ~2.25 h | Fe (fraction of dose excreted unchanged in urine over 48 h) ([4]; carmegliptin 150 mg + acute verapamil 80 mg t.i.d., day 10, geometric mean (CV%)): 33% and 33.1% and 33.1 (17.7) % | CLr (renal clearance) [4, 14]: 13.6 (14.7) L/h | Fe (fraction of dose excreted unchanged in urine over 48 h) [4, 14]: 38.7% and 38.7 (18.1) % | Fe (fraction of dose excreted unchanged in urine over 48 h) ([4]; carmegliptin 150 mg single dose alone, day 1, geometric mean (CV%)): 26% and 26.0 (22.7) % | AUCinf higher than carmegliptin alone [4, 15]: 29% | Cmax higher than carmegliptin alone [4, 15]: 53% | maximum plasma levels attained earlier than carmegliptin alone [4, 15]: ~1.5 h | peak concentrations occurred earlier ([4]; co-administered with verapamil, acute and chronic): 1.5 to 2.25 h | CL renal ([4]; male, human, plasma and urine, oral, 150 mg, read-out: CLr (renal clearance) (converted)): 215 mL/min | AUC(0-inf) [4, 16]: 3570 ng·h/mL | Cmax [4, 16]: 342 ng/mL | half-life [4, 16]: 22.4 h | AUC(0-t) ([4]; male, human, oral, 150 mg, carmegliptin 150 mg single dose alone, day 1, geometric mean (CV%), read-out: AUC0–24): 2410 ng·h/mL | AUC(0-t) ([4]; male, human, oral, 150 mg, carmegliptin 150 mg single dose alone, day 1, geometric mean (CV%), read-out: AUClast): 3010 ng·h/mL | Vd/F [4, 16]: 1360 L | Tmax ([4]; male, human, oral, 150 mg, carmegliptin 150 mg single dose alone, day 1): 3 h | AUC(0-inf) [4, 17]: 4250 ng·h/mL | Cmax [4, 17]: 505 ng/mL | half-life [4, 17]: 21.8 h | AUC(0-t) ([4]; male, human, oral, carmegliptin 150 mg + acute verapamil 80 mg t.i.d., day 10, geometric mean (CV%), read-out: AUC0–24): 2950 ng·h/mL | AUC(0-t) ([4]; male, human, oral, carmegliptin 150 mg + acute verapamil 80 mg t.i.d., day 10, geometric mean (CV%), read-out: AUClast): 3650 ng·h/mL | Vd/F [4, 17]: 1110 L | Tmax ([4]; male, human, oral, carmegliptin 150 mg + acute verapamil 80 mg t.i.d., day 10): 0.75 h | AUC(0-inf) [4, 18]: 4590 ng·h/mL | Cmax [4, 18]: 522 ng/mL | half-life [4, 18]: 14.4 h | AUC(0-t) ([4]; male, human, oral, carmegliptin 150 mg + chronic verapamil 80 mg t.i.d., day 15, geometric mean (CV%), read-out: AUC0–24): 3620 ng·h/mL | AUC(0-t) ([4]; male, human, oral, carmegliptin 150 mg + chronic verapamil 80 mg t.i.d., day 15, geometric mean (CV%), read-out: AUClast): 4280 ng·h/mL | Vd/F [4, 18]: 678 L | Tmax ([4]; male, human, oral, carmegliptin 150 mg + chronic verapamil 80 mg t.i.d., day 15): 1.5 h | uptake process [5]: mainly passive diffusion | inhibitor of P-glycoprotein (Pgp) [6]: not an inhibitor | cell permeability [7]: low cell permeability | substrate of human MDR1 / human Pgp [8]: good substrate | uptake process [9]: mainly passive diffusion | uptake process [10]: mainly passive diffusion

COc1ccc(CCNCCCC(C#N)(c2ccc(OC)c(OC)c2)C(C)C)cc1OC (stereo not shown) [Norverapamil]
AUC(0-t) [11]: 203 ng·h/mL | Cmax [11]: 63.8 ng/mL | Tmax [11]: 1 h | effect on Pgp activity [12]: inhibitory effects on Pgp activity
